Experimental data from publication PMC10415494, “Ga(III) pyridinecarboxylate complexes: potential analogues of the second generation of therapeutic Ga(III) complexes?” (Journal of Biological Inorganic Chemistry, 2023).

Columns and labels:
[1] = test system: Candida parapsilosis (C. parapsilosis) ATCC 22019; test: Antimicrobial activity, macrodilution method (yeast, growth by A590); format: cell-based; conditions: Yeast; Sabouraud's growth medium, 37 °C; read-out: IC50 C. parapsilosis
Experimental: (§1) The antimicrobial activities of gallium(III) complexes GaPic, GaDpic, GaChel, GaCldpic, free ligands (HPic, H2Dpic, H2Chel, H2Cldpic) and positive controls (cefoxitin (C), ampicillin (A) and piperacillin (P)) were evaluated by macrodilution method using G^+ bacteria (Firmicutes) Staphylococcus aureus (S. aureus) CCM 3953 (Czech Collection of Microorganisms), G^− bacteria (γ-proteobacteria) Escherichia coli (E. coli) CCM 3988, Pseudomonas aeruginosa (P. aeruginosa) CCM 1959 (Czech Collection of Microorganisms) and the yeast Candida parapsilosis (C. parapsilosis) ATCC 22019 (American type culture collection). Cultures of bacteria (in Mueller–Hinton broth, MHB) and yeasts (in Sabouraud’s growth medium, SB) were incubated under shaking (250 rpm) at 37 °C. The growth of bacteria and yeasts was evaluated by measuring the absorbance of the growing cultures (A590) until the cultures reached the stationary growth phase. The effects of gallium(III) complexes on the growth of filamentous fungi Rhizopus oryzae (R. oryzae) CCM F-8284, Alternaria alternata (A. alternata) CCM F-128 and Microsporum gypseum (M. gypseum) CCM F-8342 (Czech Collection of Microorganisms) were observed by macrodilution method on solidified potato-dextrose growth medium (PDA). During culturing, the diameters of growing fungal colonies were measured at regular intervals. Briefly, the antimicrobial activity (bacteria and yeasts) gallium(III) complexes/ ligands were added to the microbial culture at the beginning of the cultivation-to the lag phase. Pure gallium(III) complexes/ligands were dissolved in DMSO. The final concentration of DMSO never exceeded 1.0 vol. % neither in control nor treated samples. Concentration of gallium(III) complexes used in experimental work for evaluation of antimicrobial activity was used in the range of 0.05–2 mM, for the free ligands in the range of 0.5–2.0 mM in all experiments. […] The IC50 values were evaluated from toxicity curves. All the obtained results of antimicrobial activity were compared to the activity of Ga(NO3)3.

[2] = test system: Staphylococcus aureus (S. aureus) CCM 3953; test: Antimicrobial activity, macrodilution method (growth by A590); format: cell-based; conditions: for IC50: Bacteria, MHB, 37 °C, DMSO max 1.0 vol. %, read-out: IC50 S. aureus; for inhibition of S. aureus growth: complex at 2 mM
Experimental: as §1

[3] = test system: Escherichia coli (E. coli) CCM 3988; test: as above; format: cell-based; conditions: for IC50: Bacteria, MHB, 37 °C, DMSO max 1.0 vol. %, read-out: IC50 E. coli; for partial inhibition of E. coli growth: concentration not given
Experimental: as §1

[4] = test system: Pseudomonas aeruginosa (P. aeruginosa) CCM 1959; test: as above; format: cell-based; conditions: for IC50: Bacteria, MHB, 37 °C, DMSO max 1.0 vol. %, read-out: IC50 P. aeruginosa
Experimental: as §1

[5] = test system: Microsporum gypseum (M. gypseum) CCM F-8342; test: Growth of filamentous fungi, macrodilution method on solidified PDA (colony diameter); format: cell-based; conditions: Filamentous fungi; solidified potato-dextrose growth medium; read-out: IC50 M. gypseum
Experimental: as §1

[6] = test system: Rhizopus oryzae (R. oryzae) CCM F-8284; test: as above; format: cell-based; conditions: solidified potato-dextrose growth medium; read-out: IC50 R. oryzae
Experimental: as §1

[7] = test system: Alternaria alternata (A. alternata) CCM F-128; test: as above; format: cell-based; conditions: Filamentous fungi; solidified potato-dextrose growth medium; read-out: IC50 A. alternata
Experimental: as §1

[8] = test system: HeLa (human cervical adenocarcinoma); test: MTS antiproliferative assay
Experimental: (§2) Cell culture the cell lines A2058 (human metastatic melanoma), BLM (human metastatic melanoma), HCT116 (human colorectal carcinoma), HeLa (human cervical adenocarcinoma), Jurkat (human leukaemic T cell lymphoma). […] Cells were maintained in standard conditions with an atmosphere containing 5% CO2 at 37 °C.
(§3) The antiproliferative activity of Ga(III) complexes GaPic, GaDpic, GaChel, GaCldpic, free ligands (HPic, H2Dpic, H2Chel, H2Cldpic) and cisplatin (cisPt) were evaluated by colorimetric microculture MTS (3-(4,5-dimethylthiazol-2-yl)-5-(3-carboxymethoxyphenyl)-2-(4-sulfophenyl)-2H tetrazolium) assay (Promega, Madison, WI, USA). Cancer and non-cancer cells were seeded at density 5 × 10^3 cells/well in 96-well polystyrene microplates. Twenty-four hours after cell seeding, different concentrations (1.0—100.0 µM) of the compounds were tested. After 72 h of incubation, 10 µL of MTS was added to each well. After an additional 2 h, cell proliferation was evaluated by measuring of absorbance at wavelength 490 nm using the automated Cytation™ 3 Cell Imaging Multi-Mode Reader (Biotek, Winooski, VT, USA). The absorbance of control wells was taken as 100%, and the results were expressed as a percent of untreated control. IC50 values were calculated from MTS analyses.

[9] = test system: Jurkat (human leukaemic T cell lymphoma); test: MTS antiproliferative assay
Experimental: as §2, §3

[10] = test system: A2058 (human metastatic melanoma); test: MTS antiproliferative assay
Experimental: as §2, §3

[11] = test system: HCT116 (human colorectal carcinoma); test: MTS antiproliferative assay
Experimental: as §2, §3

[12] = test system: PaTu 8902 (human pancreatic adenocarcinoma); test: MTS antiproliferative assay
Experimental: as §2, §3

[13] = test system: MDA-MB-231 (human mammary gland adenocarcinoma); test: MTS antiproliferative assay
Experimental: as §2, §3

[14] = test system: human dermal fibroblasts (HDF); test: in vitro
Experimental: as §2, §3

[15] = Complex stability in biological testing medium by time-dependent 1H NMR; format: physicochemical; conditions: 300 K, over 96 h
Experimental: Nuclear magnetic resonance (NMR) data were collected on a Varian VNMRS 600 spectrometer operating at 599.87 MHz for ^1H. The concentration of all samples was approximately 3 mg/0.6 mL of 1% DMSO-d6/D2O. For comparison, the spectra of pure acids were also measured, while the pH of the solution of acids was adjusted to the same value as the solution of the complexes. The chemical shifts were referenced to the TSP (3-(trimethylsilyl)propionic-2,2,3,3-d4 acid sodium salt) peak (^1H NMR 0.00 ppm). The NMR data were recorded at 300 K, with chemical shifts δ reported in parts per million and coupling constants J in Hertz. All data were analysed using MestReNova 12.0.0 (2017) software. The stability in 1% DMSO-d6/D2O was determined for all samples. […]

[16] = target: T1, bovine serum albumin (BSA) (Bos taurus, UniProt P02769); test: BSA fluorescence quenching (Stern-Volmer); format: binding; conditions: 0.01 M PBS buffer pH 7.4, 25 °C, λex = 280 nm
T1 construct: purchased Sigma-Aldrich Chemicals
T1 sequence (P02769 25-607): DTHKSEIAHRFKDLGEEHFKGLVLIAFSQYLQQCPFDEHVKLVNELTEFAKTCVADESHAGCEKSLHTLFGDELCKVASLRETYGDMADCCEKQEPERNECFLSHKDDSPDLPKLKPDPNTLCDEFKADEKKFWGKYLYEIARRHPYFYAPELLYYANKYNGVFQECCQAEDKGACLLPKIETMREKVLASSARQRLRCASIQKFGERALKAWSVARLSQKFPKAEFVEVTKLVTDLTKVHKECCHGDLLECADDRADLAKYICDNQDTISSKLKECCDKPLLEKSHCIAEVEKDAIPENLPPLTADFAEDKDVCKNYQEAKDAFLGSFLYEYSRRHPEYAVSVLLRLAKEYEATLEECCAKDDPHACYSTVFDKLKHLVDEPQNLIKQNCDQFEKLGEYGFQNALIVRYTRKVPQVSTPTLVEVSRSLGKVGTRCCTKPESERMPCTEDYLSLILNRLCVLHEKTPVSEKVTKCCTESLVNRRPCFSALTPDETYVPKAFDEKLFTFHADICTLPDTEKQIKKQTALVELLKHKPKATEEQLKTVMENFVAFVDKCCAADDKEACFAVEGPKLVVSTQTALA
Experimental: Fluorescence measurements were carried out on a Varian Cary Eclipse spectrofluorometer. The quenching studies of BSA with the Ga(III) complexes were investigated to determine whether they were able to quench fluorescence of BSA. All measurements were performed at 25 °C in 0.01 M PBS buffer (pH 7.4). The fluorescence spectra were measured at an excitation wavelength of 280 nm, with a slit width of 10 nm for the excitation and emission beams, in the range of 300–450 nm and analysed according to the classical Stern–Volmer Equation: F0/F=1+KSVQ where F0 and F are the fluorescence intensities in the absence and the presence of the quencher, respectively, KSV is the Stern–Volmer constant, and [Q] is the concentration of quencher.

[17] = Experimental: The stock solution of HPic and H2Dpic was prepared by dissolving in demineralized water (c(ligand) = 0.02 M). The gallium(III) ion solution was prepared from anhydrous gallium(III) nitrate (c(Ga^3+) = 0.05 M) and was standardized by back titration of excess of EDTA with zinc(II). Decarbonated potassium hydroxide solution (approx. 0.2 M) was used as a titrant that was standardized by potassium hydrogen phthalate (c(KHP) = 0.1 M). Standard inert electrolyte of nitric acid was used in all titrations (c(HNO3) = 0.03 M, I(HNO3/KNO3) = 0.1 M). Potentiometric measurements were carried out using a TitroLine 7000 dosage system with a BlueLine combination electrode (SI Analytics) in a glass vessel (5 mL) thermostated at 25 ± 0.1 °C at an ionic strength I(KNO3) = 0.1 M. Inert atmosphere was ensured by a constant flow of a nitrogen gas. Precise calibration of the electrode was carried out by the titration of 0.03 M HNO3 with 0.2 M KOH in the range –log[H^+] = 1.8–12.0, with the pH-meter yielding E values. The relation between E and –log[H^+] is expressed by Eq. (1) where the term E^0 contains the standard potentials of the electrode and the contribution of inert ions to the liquid-junction potential. The value S corresponds to the Nernstian slope, the value of which should be close to the theoretical value, and j1[H^+] and j2[OH^–] = j2Kw/[H^+] are contributions of the H^+ and OH^– ions, respectively, to the liquid-junction potential. The pKw value was 13.78 in Eq. (1).1 E=E^0-S-logH^++j1H^++j2Kw/H^+
The parameters j1 and j2 cause deviation from linear dependence between E and –log[H^+] only in strongly acidic and strongly alkaline solutions. The picolinic and dipicolinic acid protonation constants were determined with ligand concentration 0.004 M. The stability constants in the Ga-HPic and Ga-H2Dpic binary system were determined by the ligand concentrations 0.004 and the Ga^3+ concentration was 0.004, 0.002 and 0.001 M in dependence on the ligand to metal ratio.
The protonation constants β110, β210 are the concentration constants and are defined by β110 = [HL]/ [H][L], β210 = [H2L]/ [H]^2[L] (pK2 = logβ110, pK1 = logβ210- logβ110); the stability constants are defined by βrqp = [HrLqMp]/[H]^r[L]^q[M]^p. The equilibrium constants were obtained by fitting the titration data with OPIUM [23]. The following hydrolysis constants were used for the calculations: βpr = [Mp(OH)r^3−r][H]^r/[M]^p; log β11 = − 2.74; log β12 = − 7.0; log β13 = − 11.96; log β14 = − 15.52 [24].

With O=[N+]([O-])[O-].O=[N+]([O-])[O-].O=[N+]([O-])[O-].[Ga+3] [Ga(NO3)3, gallium(III) nitrate] the IC50 [1] was greater than 500 µM, the IC50 [2] was greater than 500 µM and the IC50 [3] was greater than 500 µM. The IC50 [4] was greater than 500 µM, the IC50 [5] was greater than 500 µM and the IC50 [6] was greater than 500 µM. It also gave an IC50 [7] greater than 500 µM.

Compound O.O.O.O.O.O.O=C([O-])c1cc(O)cc(C(=O)[O-])n1.O=C([O-])c1cc(O)cc(C(=O)[O-])n1.[Ga+3].[Ga+3].[OH-].[OH-] [GaChel, [Ga(Chel)(H2O)(OH)]2·4H2O] has an IC50 [1] greater than 2000 µM, an IC50 [8] of 1410 ± 155 µM and an IC50 [9] of 418 ± 100 µM. The IC50 [10] was 415 ± 4 µM, the IC50 [11] was 406 ± 86.8 µM and the IC50 [12] was 610 ± 54 µM. For the same compound, the IC50 [13] was 199 ± 45.6 µM, the IC50 [14] was 347 ± 25.5 µM and the “stability in 1% DMSO-d6/D2O solution” value [15] was “stable”. The IC50 [2] was 2000 µM, the “inhibition of S. aureus growth” value [2] was 50% and the IC50 [3] was greater than 2000 µM. For the same compound, the “partial inhibition of E. coli growth” value [3] was 9%, the IC50 [4] was 500 µM and the “MIC100 (MIC) P. aeruginosa” value ([4]; growth fully inhibited (100%)) was 1000 µM. The IC50 [5] was greater than 2000 µM, the IC50 [6] was greater than 2000 µM and the IC50 [7] was greater than 2000 µM.

With O.O=C([O-])c1cccc(C(=O)[O-])n1.O=C([O-])c1cccc(C(=O)[O-])n1.[Ga+3].[OH3+] [GaDpic, H3O[Ga(Dpic)2]·H2O] the IC50 [1] was greater than 2000 µM, the “Stern–Volmer binding constant Ksv BSA” value [16] was 68500 M⁻¹ and the IC50 [8] was 1140 ± 135 µM. The IC50 [9] was 325 ± 34.9 µM, the IC50 [10] was 287 ± 59.3 µM and the IC50 [11] was 1240 ± 58.9 µM. For the same compound, the IC50 [12] was 509 ± 32.6 µM, the IC50 [13] was 308 ± 67.8 µM and the IC50 [14] was 288 ± 26.6 µM. The “stability in 1% DMSO-d6/D2O solution” value [15] was “stable”, the IC50 [2] was greater than 2000 µM and the “inhibition of S. aureus growth” value [2] was 24%. The IC50 [3] was greater than 2000 µM, the “partial inhibition of E. coli growth” value [3] was 30% and the IC50 [5] was greater than 2000 µM. The IC50 [6] was greater than 2000 µM and the IC50 [7] was greater than 2000 µM.

For O=C([O-])c1cccc(C(=O)[O-])n1.O=C([O-])c1cccc(C(=O)[O-])n1.[Ga+3].[OH-] [[Ga(Dpic)2(OH)]^2−], the “stability constant logβ-121” value [17] was 11.08(4).

With O=C([O-])c1cccc(C(=O)[O-])n1.O=C([O-])c1cccc(C(=O)[O-])n1.[Ga+3] [[Ga(Dpic)2]^−] the “stability constant logβ021” value [17] was 15.42(9).
